The text below walks through data of ChEMBL document CHEMBL1201862, “PubChem BioAssay data set” (2004).

Activity calls are given as the source filed them. Some results are limits rather than exact numbers.

Assay [1] has as its target Luciferin 4-monooxygenase (Photinus pyralis, UniProt P08659). The experiment in a line: Counter Screen for Luciferase-based Assay Positives. [Related pubchem assays: 620, 618, 411 ]. Background: A counterscreen serves to expose hits that act by an unwanted route or on another target.
Assay [2] deals with T1, Oxysterols receptor LXR-beta (Homo sapiens, UniProt P55055).
T1 sequence (P55055 whole entry): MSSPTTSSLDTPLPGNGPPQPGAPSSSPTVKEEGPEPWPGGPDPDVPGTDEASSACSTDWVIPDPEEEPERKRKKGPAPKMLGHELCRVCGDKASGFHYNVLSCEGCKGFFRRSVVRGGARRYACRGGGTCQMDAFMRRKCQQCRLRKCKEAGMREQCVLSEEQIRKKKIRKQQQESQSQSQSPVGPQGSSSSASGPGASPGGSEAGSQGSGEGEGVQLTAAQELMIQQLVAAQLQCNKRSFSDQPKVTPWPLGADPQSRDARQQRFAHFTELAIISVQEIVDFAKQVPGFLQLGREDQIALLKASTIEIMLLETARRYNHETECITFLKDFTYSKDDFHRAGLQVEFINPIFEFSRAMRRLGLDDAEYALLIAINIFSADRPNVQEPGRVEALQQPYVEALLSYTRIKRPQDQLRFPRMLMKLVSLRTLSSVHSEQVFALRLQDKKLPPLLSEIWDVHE
The experiment in a line: LXR agonists, Gal4 luciferase reporter, dose response, counter-screen for ssDAF-12 agonist project, cell-based, luminescence, HEK293, S. stercoralis campaign (AID 720737). The format is functional. To be noted: read-out: IC50 (the source's name).

The target of assay [3] is T1, Oxysterols receptor LXR-beta. Format: functional, cell-based.
The next assay relates to HT-1080. The experiment in a line: HT1080 cell viability loss – fluorescence readout (AID 620). The format is functional, cell-based. To be noted: Homo sapiens.
A short description of assay [4]: Luminescence-based cell-based high throughput dose response assay to identify activators of the DAF-12 from the parasite S. stercoralis (ssDAF-12). Format: functional.
For a further assay, the system named is HEK293. The experiment in a line: viability loss in HEK293T cells – cell-based, ATP luminescence, cherry-pick samples, cytotoxicity control, dose response (AID 687005).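 Also: cells exposed to compound for 48 hours.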 Format: functional. As to conditions: Homo sapiens.
Assay [5] is described as follows: A2780 cell killing – plate reader, dry powder samples, cytotoxicity control, dose response (AID 743046). The format is functional, cell-based.
Assay [6] is described as follows: HEK293 Cytotoxicity Assay Measured in Cell-Based System Using Plate Reader - 7071-01_Inhibitor_Dose_CherryPick_Activity_Set2. The format is functional.
A further assay concerns the target Paired box protein Pax-8 (Homo sapiens, UniProt Q06710). The experiment in a line: PAX8 transcriptional activity inhibition in RMG-I – RMG-I cells, luciferase, cherry-pick, dose response (AID 687027).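 Also: luciferase reporter driven by Pax8 target thyroperoxidase promoter measured by SteadyGlo luminescence.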 The format is functional, cell-based.
Assay [7] can be described thus: OVCAR4 cell viability loss – plate reader, dry powder, SA11, cytotoxicity control for PAX8 inhibitor project, dose response (AID 743150). Format: functional, cell-based. As to conditions: OVCAR-4.
Assay [8] in a line: Dd2 malaria parasite growth inhibition potency – SYBR Green, dry powder samples, dose response (AID 1159566).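 Also: potency for growth inhibition with lower SYBR green DNA signal.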 Format: functional, cell-based.
Assay [9] in a line: toxicity to human hepatoma HepG2 cells – cell-based, cherry-picked samples, cytotoxicity control, dose response (AID 1159577). The format is functional.
The nature of assay [10]: P. falciparum Dd2 growth inhibitors, dose response, SYBR Green, cherry-picked samples (AID 1159567). The format is functional, cell-based.
Assay [11] is described as follows: PAX8-dependent cell viability loss – plate reader, dry powder, dose response (AID 743049). The format is functional, cell-based.
Assay [12] in a line: inhibitors acting on PAX2 in cells – cell-based, plate reader, dry powder samples, selectivity assay for PAX8 inhibitor project, dose response (AID 743048).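 Also: HEK293 cells carrying a WT1 promoter luciferase reporter driven by expressed Pax2; potency is for inhibition of Pax2 driven reporter signal.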 The format is functional.
The nature of assay [13]: growth inhibition of yeast DHODH-expressing 3D7 parasites – SYBR Green, dry powder samples, dose response (AID 1159570).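 Also: parasite growth measured after 72 hours of compound exposure.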 The format is functional, cell-based.
Assay [14] is described as follows: OVCAR-3 cell viability loss – plate reader, dry powder samples, PAX8 inhibitor project, dose response (AID 743044). Format: functional, cell-based.
Assay [15] in a line: growth inhibition of PfATP4-mutant resistant parasites – NITD609-resistant line, SYBR Green, dry powder, dose response (AID 1159571).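 Also: parasites synchronized at ring stage by sorbitol before testing.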 The format is functional, cell-based.
Assay [16] can be described thus: COV362 cell viability loss – plate reader, dry powder, SA12, cytotoxicity control for PAX8 inhibitor project, dose response (AID 743144). The format is functional, cell-based.
A short description of assay [17]: OV-90 cell viability loss – plate reader, dry powder, SA8, PAX8 inhibitor project, dose response (AID 743149). Format: functional, cell-based.
Assay [18] can be described thus: PAX5 cellular inhibition readout – cell-based, plate reader, dry powder samples, selectivity assay for PAX8 inhibitor project, dose response (AID 743047).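 Also: HEK293 cells carrying a Pax5 driven CD19 promoter luciferase reporter; potency of inhibitors that lower reporter luminescence.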 The format is functional.
Assay [19] in a line: COV434 cell viability loss – plate reader, dry powder, SA7, cytotoxicity control for PAX8 inhibitor project, dose response (AID 743145). The format is functional, cell-based.
Assay [20] deals with NAD-dependent protein deacylase sirtuin-5, mitochondrial (Homo sapiens, UniProt Q9NXA8). The experiment in a line: blockers of sirtuin-5 peptide desuccinylation – biochemical, fluorescence imaging, cherry-pick, set 6, dose response (AID 720597).
Assay [21] is described as follows: viability loss in HEK293T cells – cell-based, CellTiter-Glo luminescence, dry powder, set 6, cytotoxicity control, dose response (AID 651949). Format: functional. To be noted: HEK293. Background: In ATP-based viability assays light output follows the ATP content of the culture.
The nature of assay [22]: inhibitors of non-replicating M. tuberculosis, dose response, luciferase, dry powder (AID 651619). As to conditions: Mycobacterium tuberculosis. The format is functional.
Assay [23] can be described thus: inhibitors of non-replicating M. tuberculosis, dose response, luciferase, dry powder (AID 651620). As to conditions: Mycobacterium tuberculosis. The format is functional.
The nature of assay [24]: HeLa cell viability loss – plate reader, dry powder, cytotoxicity control, dose response (AID 651946). The format is functional, cell-based.

Paired box protein Pax-8, sequence (Q06710 whole entry): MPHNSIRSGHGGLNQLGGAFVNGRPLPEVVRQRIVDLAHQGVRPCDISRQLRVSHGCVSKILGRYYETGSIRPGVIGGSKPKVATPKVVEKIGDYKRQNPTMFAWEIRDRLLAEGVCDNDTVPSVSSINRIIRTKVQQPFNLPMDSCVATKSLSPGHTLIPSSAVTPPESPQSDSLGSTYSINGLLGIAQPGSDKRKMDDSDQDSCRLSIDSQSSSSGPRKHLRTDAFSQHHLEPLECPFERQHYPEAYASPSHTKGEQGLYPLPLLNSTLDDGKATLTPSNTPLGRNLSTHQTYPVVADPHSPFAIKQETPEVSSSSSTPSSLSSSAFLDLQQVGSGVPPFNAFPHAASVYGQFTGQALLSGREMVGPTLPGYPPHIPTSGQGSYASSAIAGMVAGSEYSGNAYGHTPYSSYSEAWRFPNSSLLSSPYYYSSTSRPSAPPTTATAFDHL
NAD-dependent protein deacylase sirtuin-5, mitochondrial, sequence (Q9NXA8 whole entry): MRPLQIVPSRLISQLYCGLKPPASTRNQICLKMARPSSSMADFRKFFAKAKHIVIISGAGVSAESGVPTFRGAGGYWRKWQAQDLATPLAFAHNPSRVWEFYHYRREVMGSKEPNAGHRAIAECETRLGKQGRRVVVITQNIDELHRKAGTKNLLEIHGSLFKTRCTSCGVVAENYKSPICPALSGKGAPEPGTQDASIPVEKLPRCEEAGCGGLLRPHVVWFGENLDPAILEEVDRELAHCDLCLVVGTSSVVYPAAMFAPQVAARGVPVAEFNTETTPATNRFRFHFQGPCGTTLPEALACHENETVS
Luciferin 4-monooxygenase, sequence (P08659 whole entry): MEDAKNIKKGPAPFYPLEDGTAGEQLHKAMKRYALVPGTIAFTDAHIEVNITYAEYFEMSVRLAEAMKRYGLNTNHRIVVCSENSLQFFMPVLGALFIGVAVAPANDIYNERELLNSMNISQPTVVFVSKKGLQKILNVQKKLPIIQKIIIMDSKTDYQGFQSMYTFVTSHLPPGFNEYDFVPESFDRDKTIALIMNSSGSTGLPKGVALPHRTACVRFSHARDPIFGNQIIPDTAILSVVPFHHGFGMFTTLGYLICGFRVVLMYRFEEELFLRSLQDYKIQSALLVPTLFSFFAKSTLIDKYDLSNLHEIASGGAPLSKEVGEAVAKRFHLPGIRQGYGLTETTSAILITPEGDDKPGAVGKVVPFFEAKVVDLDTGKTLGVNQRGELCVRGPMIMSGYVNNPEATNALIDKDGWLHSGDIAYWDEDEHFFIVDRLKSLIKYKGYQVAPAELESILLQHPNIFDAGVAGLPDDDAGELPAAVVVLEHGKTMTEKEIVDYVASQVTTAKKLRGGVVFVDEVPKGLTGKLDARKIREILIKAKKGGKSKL

What is called IC50 is the midpoint of a concentration-inhibition curve. With `O=C1c2ccccc2C(=O)C1c1nccc2ccccc12`, the EC50 in “cells” was > 67.5 µM (inactive); in assay [1] it was 1.3 µM (active); in assay [2] it was > 67.5 µM (inactive); in assay [3], > 67.5 µM (inactive); in the assay on HT-1080, > 50 µM (not active). The IC50 in assay [4] is > 67.5 µM (inactive).

Broadly, the AC50 is the midpoint of the concentration-response curve, whichever way the signal moves. With `COc1cccc(S(=O)(=O)N(C)C[C@@H]2OCc3ccccc3-c3ccccc3C(=O)N([C@@H](C)CO)C[C@@H]2C)c1`, the AC50 with HEK293 is 36 µM (active); in assay [5] it was 53.8 µM (active); in assay [6], 36 µM (active); at Paired box protein Pax-8, 15.9 µM (active).

On to `N#C[C@H]1[C@@H](c2ccc(C#Cc3ccccc3F)cc2)[C@@H](CO)N1C(=O)C1CCCCC1`, for which the AC50 in assay [7] was 3.01 µM (active); in assay [8], 0.584 µM (active); in [9] it was > 39 µM (inactive); in assay [10], 1.09 µM (active); in [11], 7.86 µM (active); in [12] it was 14.2 µM (active). For the same molecule, the AC50 is 0.8 µM (active) in assay [13]; 16.1 µM (active) in [14]; 1.23 µM (active) in assay [15]; 36.2 µM (active) in [16]; 27.7 µM (active) in assay [17]; 13 µM (active) in assay [18]. In addition, the results for the AC50 (in assay [19]; on Paired box protein Pax-8) were 20.3 µM (active) and 3.09 µM (active), respectively.

Take `C[C@H](CO)N1C[C@H](C)[C@H](CN(C)C(=O)Cc2ccccc2)Oc2ncc(C3=CCCCC3)cc2C1=O`: the AC50 in assay [20] was > 30 µM (inactive).

Usually IC90 stands for the point of the concentration-response curve where the effect stands at 90%. As to `Fc1ccc(Cn2cc(CSc3nnc(-c4ccc(Cl)cc4)o3)nn2)cc1`, the AC50 in [21] and in assay [24] was > 52 µM (inactive) in each case. Further, the IC90 in [22] and in [23] was 1 µM (active) each time.
